# Values quoted from earlier work as cited in article PMC10726920 (Cancer Medicine, 2023).
# Assays:
# r/r ALL = system: r/r ALL; set-up: method as in PMID 25724525; details: combined with Hyper‐CVAD; cited from earlier work
# ALL at first relapse = system: ALL at first relapse; set-up: method as in PMID 29603593; details: cited from earlier work
# r/r pediatric ALL = details: with cyclophosphamide, etoposide, cited from earlier work
# [1] = system: r/r ALL in second relapse or greater; details: added to intensive chemotherapy, cited from earlier work
# lymphoid neoplasms = system: lymphoid neoplasms; set-up: method as in PMID 22080480; details: cited from earlier work
compound,measurement,setting,value
CO[C@H]1C[C@@H]2CC[C@@H](C)[C@@](O)(O2)C(=O)C(=O)N2CCCC[C@H]2C(=O)O[C@H]([C@H](C)C[C@@H]2CC[C@@H](OCCO)[C@H](OC)C2)CC(=O)[C@H](C)/C=C(\C)[C@@H](O)[C@@H](OC)C(=O)[C@H](C)C[C@H](C)/C=C/C=C/C=C/1C [Everolimus],CR or CRi in patients with only one prior line of therapy,r/r ALL,Six of 11
same,dose‐limiting toxicity,r/r ALL,G3 mucositis
same,overall response rate,r/r ALL,33%
same,patients with meningitis,"ALL at first relapse; dose level 3, Two out of twelve",17%
same,patients obtaining remission (CR2),"ALL at first relapse; with multi‐agent chemotherapy, Nineteen of 22",86%
same,DLT,ALL at first relapse; with multi‐agent chemotherapy,elevated liver enzymes in one patient
CO[C@H]1C[C@@H]2CC[C@@H](C)[C@@](O)(O2)C(=O)C(=O)N2CCCC[C@H]2C(=O)O[C@H]([C@H](C)C[C@@H]2CC[C@@H](OC(=O)C(C)(CO)CO)[C@H](OC)C2)CC(=O)[C@H](C)/C=C(\C)[C@@H](O)[C@@H](OC)C(=O)[C@H](C)C[C@H](C)/C=C/C=C/C=C/1C [temsirolimus],overall response rate,r/r pediatric ALL; 15 patients,47%
same,CR or CRi,r/r pediatric ALL,26%
same,patients achieving remission,[1]; Seven of 15,47%
same,patients with minimal residual disease <0.01%,[1]; three patients,20%
COc1cccc2cc(-c3nc([C@H]4CC[C@H](C(=O)O)CC4)n4ncnc(N)c34)[nH]c12 [OSI‐027],sensitivity of ALL across a series of lymphoid neoplasms,lymphoid neoplasms,most sensitive
